Assay results as given in PMC9585577, “Oxyresveratrol and Gnetol Glucuronide Metabolites: Chemical Production, Structural Identification, Metabolism by Human and Rat Liver Fractions, and In Vitro Anti-inflammatory Properties” (Journal of Agricultural and Food Chemistry, 2022).
Read-outs that look alike come from different tables or passages of the source.

Legend:
human liver S9 fractions = experiment: In vitro glucuronidation by human hepatic S9 fractions; type: in vitro ADME; settings: for Vmax: human S9 0.5 mg/mL
Method: (§1) To study the production of glucuronide metabolites in vitro, human and rat S9 hepatic fractions were used. To ensure that the formation rates of metabolites were linear over the incubation time and at the concentration of protein, a series of preliminary experiments was performed to optimize the reactions.
(§2) Glucuronidation was studied by incubation of human or rat liver S9 fractions (0.5 mg/mL) with ORV or GN at different concentrations (0–3000 μM) in Tris–HCl buffer (50 mM, pH 7.4) in the presence of UDPGA (1 mM), alamethicin (25 μg/mL), and MgCl2 (5 mM). All samples were prepared in Eppendorf tubes in a final volume of 100 μL. After 15 min at 37 °C, 100 μL of methanol (100%) was incorporated to stop the reaction and precipitate the proteins. Finally, samples were centrifuged for 30 min at 14000g and 4 °C, and the supernatants were analyzed by UPLC–DAD–MS. Analysis were carried out using 1290 Infinity UPLC (Agilent Technologies, Courtaboeuf, France). The UPLC system was coupled to an Esquire 3000 Plus ion trap mass spectrometer using an ESI source (Bruker-Daltonics, Billerica, MA, U.S.A.). A total of 2 μL was injected into an Agilent SB-C18 column (1.8 μm, 2.1 × 100 mm). Samples were eluted with solvent A (H2O/0.1% formic acid) and solvent B (acetonitrile/0.1% formic acid) with the following gradient program: 10% B (from 0 to 1.7 min), 10–20% B (from 1.7 to 3.4 min), 20–30% B (from 3.4 to 5.1 min), 30% B (from 5.1 to 7.8 min), 30–35% B (from 7.8 to 9.5 min), 35–60% B (from 9.5 to 11.9 min), 60–100% B (from 11.9 to 15.3 min), 100% B (from 15.3 to 17 min), and 100–10% B (from 17 to 17.3 min). The flow rate was set at 0.4 mL/min, and the UV detector was set at wavelengths of 280 and 320 nm. Total ion chromatograms were obtained using negative mode with a range of m/z 130–1400. The parameters were as follows: capillary voltage, +4 kV; nebulizer pressure, 40 psi; dry gas, 10 L/min; and dry temperature, 365 °C. Data analysis was performed with Bruker Data Analysis 3.2 (Bruker-Daltonics, Billerica, MA, U.S.A.). Metabolite concentrations were quantified with the corresponding standard curve of ORV and GN glucuronides previously obtained by hemisynthesis.
(§3) The kinetic parameters, Km, Vmax, and Ki, were calculated using the GraphPad Prism software (version 6.01) (substrate inhibition as the kinetic model). The data obtained from MTT, NO, ROS, IL-1β, and TNF-α production were subjected to one-way analysis of variance (ANOVA). A comparison between LPS and the different tested concentrations of ORV, GN, and their glucuronide metabolites was performed using Dunnet’s test, and p < 0.05 was considered significant (GraphPad Prism software, version 6.01).
(§4) An important objective of this work was to study the in vitro metabolization of t-ORV and t-GN in rat and human species using S9 hepatic fractions. To this end, both stilbene monomers were incubated (37 °C, 15 min) at different concentrations (0–3000 μM) with human and rat S9 fractions (0.5 mg/mL) in the presence of UDPGA as a co-substrate of phase II enzymes. Then, samples were injected into a HPLC–DAD–MS system to identify and quantify the in vitro generated metabolites.

rat liver S9 fractions = experiment: In vitro glucuronidation by rat hepatic S9 fractions; type: in vitro ADME; settings: for Vmax: rat S9 0.5 mg/mL
Method: as §1, §2, §3, §4

[1] = tested on: NO production in LPS-stimulated RAW 264.7 cells; experiment: NO measurement (Griess) in LPS-stimulated macrophages; type: cell-based, murine; settings: for reduction of NO production: 50 μM, versus LPS alone
Method: (§5) RAW 264.7 cells were cultured in DMEM containing 10% FBS and maintained in a humidified incubator set at 37 °C with 5% CO2. For all following assays, cells were subcultured at a density of 40 000 cells per well in 96 well culture plates with 200 μL of the above-described culture medium. After 24 h, cells were incubated with ORV, GN, and their glucuronide metabolites (5–200 μM) in RPMI medium supplemented with glutamine (4 mM) in the presence or absence of LPS (0.1 μg/mL) (200 μL final volume per well). For MTT, NO, ROS, IL-1β, and TNF-α (n = 4), each experiment was performed in triplicate separately.
After 24 h of treatment of RAW 264.7 cells with ORV, GN, and their glucuronide metabolites, 70 μL of supernatant was mixed with 70 μL of Griess solution. After 15 min in darkness, the absorbance was measured at 550 nm using a microplate reader (FLUOstar Optima, BMG Labtech). A calibration curve of NO2 (0–100 μM) was used for quantification. Data were expressed as NO production (μM) compared to cells treated only with LPS (positive control).

macrophages = tested on: macrophages; set-up: method as in PMID 24257684; settings: macrophages ref 37; cited from earlier work
[2] = tested on: ROS production in LPS-stimulated RAW 264.7 cells; experiment: Intracellular ROS measurement (DCFH2-DA) in LPS-stimulated macrophages; type: cell-based, murine
Method: as §5
Generation of intracellular ROS in cells was analyzed using the fluorometric probe DCFH2-DA. After 24 h of treatment with GN, ORV, and their glucuronide metabolites, cells were washed with phosphate-buffered saline (PBS) and then 150 μL of DCFH2-DA (10 μM) was added. After 30 min at 37 °C, the fluorescence intensity was quantified using a microplate reader (FLUOstar Optima, BMG Labtech) with a wavelength of excitation and emission of 485 and 520 nm, respectively. All experiments were performed in darkness. Results were expressed as ROS production (fluorescence intensity expressed as arbitrary units) compared to cells treated only with LPS (positive control).

[3] = tested on: TNF-α production in LPS-stimulated RAW 264.7 cells; experiment: TNF-α production (ELISA) in LPS-stimulated macrophages; type: cell-based, murine; settings: 24 h
Method: as §5
At 24 h after seeding, RAW 264.7 cells were exposed to LPS (0.1 μg/mL) in the absence or presence of ORV, GN (10 and 50 μM), and their metabolites (50 and 200 μM). After 24 h of exposure, IL-1β and TNF-α concentrations were measured in culture media supernatants by ELISA sandwich assay following the instructions of the manufacturer.

RAW 264.7 cells [4] = experiment: MTT cell viability; type: cell-based, murine; settings: 24 h, 5–200 μM tested
Method: as §5
The MTT colorimetric assay was performed to assess the cell viability of cells after being treated with ORV, GN, and their glucuronide metabolites. After 24 h of treatment, RAW 264.7 cells were incubated with 0.5 mg/mL MTT during 3 h at 37 °C. The formazan crystals formed were dissolved with 100 μL of dimethyl sulfoxide (DMSO), and the plate was then incubated in the darkness for 30 min. Finally, the absorbance was measured at 595 nm using a microplate reader (FLUOstar Optima, BMG Labtech).

HMC3 cells = tested on: HMC3 cells; set-up: method as in PMID 32842681; settings: HMC3 cells ref 8; cited from earlier work
[5] = in vivo, 400 umol/kg; cited from earlier work
[6] = cited from earlier work
RAW 264.7 cells [7] = settings: cited from earlier work
macrophage cell line = settings: 100 μM, 18 h incubation ref 6; cited from earlier work
[8] = formation of the glucuronide from ORV
[9] = incubation of parent ORV or GN with human S9, UPLC–DAD–MS
[10] = formation of the glucuronide from GN
[11] = between 25 and 50 μM (summary statement)

For `O=C(O)[C@H]1O[C@@H](Oc2cc(O)ccc2/C=C/c2cc(O)cc(O)c2)[C@H](O)[C@@H](O)[C@@H]1O` [t-ORV-2′G, trans-oxyresveratrol-2′-O-glucuronide], the Vmax (human liver S9 fractions; [8]) was 12.93 ± 1.47 nmol min^–1 mg^–1 of protein, the Vmax (rat liver S9 fractions; [8]) was 2.67 ± 0.32 nmol min^–1 mg^–1 of protein and the “reduction of NO production” value ([1]; 24 h, LPS 0.1 μg/mL) was 29%.
In the case of `O=C(O)[C@H]1O[C@@H](Oc2cc(O)cc(/C=C/c3c(O)cccc3O)c2)[C@H](O)[C@@H](O)[C@@H]1O` [t-GN-3G, trans-gnetol-3-O-glucuronide], the “metabolite formed/detected in samples” value (human liver S9 fractions; [9]) is reported as “very low quantities”.
In the case of `O=C(O)[C@H]1O[C@@H](Oc2ccc(/C=C/c3cc(O)cc(O)c3)cc2)[C@H](O)[C@@H](O)[C@@H]1O` [resveratrol-4′-O-glucuronide], the cytotoxic effect (macrophages) is listed as “neither resveratrol-3-O-glucuronide nor resveratrol-4′-O-glucuronide had any cytotoxic effect”.
With `O=C(O)[C@H]1O[C@@H](Oc2cc(O)cc(/C=C/c3ccc(O)cc3O)c2)[C@H](O)[C@@H](O)[C@@H]1O` [t-ORV-3G, trans-oxyresveratrol-3-O-glucuronide] the Vmax (human liver S9 fractions; [8]) was 11.41 ± 2.32 nmol min^–1 mg^–1 of protein, the Vmax (rat liver S9 fractions; [10]) was 36 ± 3.57 nmol min^–1 mg^–1 of protein and the Vmax (rat liver S9 fractions; [8]) was 319.1 ± 69.77 nmol min^–1 mg^–1 of protein. The “reduction of NO production” value ([1]; 24 h, LPS 0.1 μg/mL) was 31%, the “reduction of ROS production, at the most” value ([2]; ORV metabolites, 50–200 μM tested, concentration not given, 24 h, LPS) was “more than 80%” and the “reduction of TNF-α” value ([3]; 200 μM) was 70%.
In the case of `O=C(O)[C@H]1O[C@@H](Oc2cccc(O)c2/C=C/c2cc(O)cc(O)c2)[C@H](O)[C@@H](O)[C@@H]1O` [t-GN-2′G, trans-gnetol-2′-O-glucuronide], the Vmax (human liver S9 fractions; [10]) is reported as 2.48 ± 0.31 nmol min^–1 mg^–1 of protein and the Vmax (rat liver S9 fractions; [10]) is reported as 6.88 ± 0.86 nmol min^–1 mg^–1 of protein.
In the case of `O=C(O)C1OC(Oc2ccc(C=Cc3cc(O)cc(O)c3)c(O)c2)C(O)C(O)C1O` (stereo not shown) [ORV-4′G], the “metabolite formed/detected in samples” value (human liver S9 fractions; [9]) is reported as “neither the trans nor the cis form of ORV-4′G was detected” and the “metabolite formed/detected in samples” value (rat liver S9 fractions; incubation of parent ORV or GN with rat S9, UPLC–DAD–MS) is reported as “neither the trans nor the cis form of ORV-4′G was detected”.
In the case of `O=C(O)[C@H]1O[C@@H](Oc2cc(O)ccc2/C=C\c2cc(O)cc(O)c2)[C@H](O)[C@@H](O)[C@@H]1O` (relative stereo) [c-ORV-2′G, cis-oxyresveratrol-2′-O-glucuronide], the “metabolite formed/detected in samples” value (human liver S9 fractions) is reported as “very low” and the “metabolite formed/detected in samples” value (rat liver S9 fractions) is reported as “very low”.
In the case of `Oc1cc(O)cc(/C=C/c2ccc(O)cc2O)c1` [t-ORV, trans-2′,3,4′,5-tetrahydroxystilbene], the “ability to metabolize ORV into glucuronides, rats versus humans (sum of Vmax/Km)” value (rat liver S9 fractions; rat, human, pH 7.4) is reported as > 2 fold, the “concentration from which toxic (MTT)” value (RAW 264.7 cells [4]) is reported as ≥ 100 µM and the “reduction of NO production” value ([1]; 24 h, LPS 0.1 μg/mL) is reported as 27.1%. For the same compound, the “concentration from which NO production significantly reduced” value ([1]; 24 h, LPS 0.1 μg/mL) was ≥ 10 µM, the “decrease of NO production” value [1, 11] was “more than 50%” and the “reduction of ROS” value ([2]; 50 μM, 24 h, LPS 0.1 μg/mL) was “more than 70%”. The “decrease of ROS production” value [2, 11] was “more than 50%”, the “reduction of TNF-α” value ([3]; 50 μM) was 30% and the “concentration from which toxic” value (HMC3 cells) was ≥ 80 µM. For the same compound, the total bioavailability [5] was 9.1-15.2%, the “AUC0–t” value ([6]; rat, in vivo, po) was 5133 μg h L^–1 and the concentration in plasma ([6]; rats, oral administration of ORV 100 mg/kg ref 19) was ~10 µM. For the same compound, the “IC30 for cell cytotoxicity” value (RAW 264.7 cells [7]) was “higher than 50 μM” and the cytotoxic effect (macrophage cell line) was “did not observe any cytotoxic effect”.
With `O=C(O)[C@H]1O[C@@H](Oc2ccc(/C=C/c3cc(O)cc(O)c3)c(O)c2)[C@H](O)[C@@H](O)[C@@H]1O` [t-ORV-4′G, trans-oxyresveratrol-4′-O-glucuronide] the “reduction of NO production” value ([1]; 24 h, LPS 0.1 μg/mL) was 27.2%.
In the case of `O=C(O)[C@H]1O[C@@H](Oc2cc(O)cc(/C=C/c3ccc(O)cc3)c2)[C@H](O)[C@@H](O)[C@@H]1O` [resveratrol-3-O-glucuronide], the cytotoxic effect (macrophages) is listed as “neither resveratrol-3-O-glucuronide nor resveratrol-4′-O-glucuronide had any cytotoxic effect”.
In the case of `O=C(O)[C@H]1O[C@@H](Oc2cc(O)cc(/C=C\c3ccc(O)cc3O)c2)[C@H](O)[C@@H](O)[C@@H]1O` (relative stereo) [c-ORV-3G, cis-oxyresveratrol-3-O-glucuronide], the Vmax/Km (human liver S9 fractions) is reported as 0.159 ± 0.066 μL min^–1 mg^–1 of protein, the Vmax (human liver S9 fractions; [8]) is reported as 13.01 ± 1.04 nmol min^–1 mg^–1 of protein and the Vmax/Km (rat liver S9 fractions) is reported as 0.073 ± 0.044 μL min^–1 mg^–1 of protein. For the same compound, the Vmax (rat liver S9 fractions; [8]) was 31.34 ± 5.6 nmol min^–1 mg^–1 of protein.
